Data taken from patent US5093256A, “Essentially purified, thermostable and alkalophilic lipase from Bacillus Sp. A30-1 ATCC 53841” (priority 1989, dated 1992).
Like-named read-outs stand apart in the source and are kept apart here.

Tested on: Bacillus sp. A30-1 ATCC No. 53841 thermostable lipase
Settings: 30° C., peroxide removed by dialysis before assay; for residual activity (of the original activity) after incubation with hydrogen peroxide: 0.5% hydrogen peroxide
Description: Lipase production was routinely assayed by monitoring the fatty acid released from corn oil. The assay is based on the fact that the dye Rhodamine 6G in benzene solution reacts with an acid to form a chromophore which can be spectrophotometrically quantified. One tenth mL of cell free culture broth (obtained by removing cells by centrifugation) was mixed with 0.02 mL of a 25% corn oil solution in 100 mM Tris-Hcl buffer (pH 9.5) and then incubated at 60° C. for 1 hr. After appropriate time the reaction was stopped with the addition of 0.1N HCl in 95% ethanol. The resulting fatty acids were extracted with petroleum ether, and evaporated to dryness under vacuum. Subsequently, diluted Rhodamine 6G stock solution was added. After fifteen minutes at room temperature the absorbance of the resulting reaction mixture was read at 515 nm. One unit of lipase is defined as the amount that will liberate 1 μmole of fatty acid per hour under the assay condition.
To an aliquot of enzyme solution containing a known amount of activity, different amounts of hydrogen peroxide were added to final concentration of 0.5, 1, 2, and 4% respectively. These were kept at 30° C. for different periods of time. Then hydrogen peroxide contained in enzyme solution was eliminated by dialysis against water. Residual activities were measured by the analytical methods described above.

Which results are given for `OO` [hydrogen peroxide]?
residual activity (of the original activity) after incubation with hydrogen peroxide (1 hr): 100%; residual activity (of the original activity) after incubation with hydrogen peroxide (19 hrs): 60%; residual activity after incubation with hydrogen peroxide (4% hydrogen peroxide, 5 hrs): 75%
